In PMC6290023 (Scientific Reports, 2018):
Square brackets hold non-standard residues; d marks the D form. Peptide text beside a SMILES is read from it.

Columns and labels:
LPS-stimulated MG6 cells = assay: Anti-inflammatory effect in LPS-stimulated MG6 cells (TNF-α / IL-6 ELISA); assay type: cell-based, mouse; settings: LPS-stimulated MG6 cells, ELISA; for inhibition of IL-6 expression compared with MHP1 / inhibition of TNF-α expression compared with MHP1: medium harvested 24 h after stimulation; for anti-inflammatory effects / effect on expression of TNF-α: 24 h; for effect on expression of TNF-α: vs LPS-stimulated cells without treatment
Experimental: MG6 cells were obtained from RIKEN BRC (Tsukuba, Japan)[25],[26]. The MG6 cells were maintained in DMEM (Nakarai, Kyoto, Japan) supplemented with 10% FBS (Thermo Fisher Scientific, Waltham, MA, USA), 10 μg/ml insulin (Sigma-Aldrich, St. Louis, MO, USA) and 100 μM 2-mercaptoethanol (Sigma-Aldrich). These cells (1 × 10^5 cells) were plated in 96-well plastic culture dishes. After overnight incubation, the medium was replaced with DMEM supplemented with 4% FBS. LPS (Escherichia coli 0111: B4; Sigma-Aldrich, St. Louis, MO, USA) and MHP1 or modified MHP1 was added to the medium, which was then harvested at 24 h after stimulation. In the experiment checking the stability at 26 or 37 °C, MHP1-Ac or MHP1-AcN was incubated at 26 or 37 °C for 24 h before adding to the medium.
The concentrations of TNF-α and IL-6 were measured using commercially available ELISA kits: TNF-α, Quantikine Mouse TNF-α ELISA Kit (R&D systems); IL-6, Quantikine Mouse IL-6 ELISA Kit (R&D systems).

Mouse (CD-1(ICR)) serum = settings: 37 °C, up to 60 min

Row | Compound | inhibition of IL-6 expression compared with MHP1 (LPS-stimulated MG6 cells) | inhibition of TNF-α expression compared with MHP1 (LPS-stimulated MG6 cells) | anti-inflammatory effects (LPS-stimulated MG6 cells) | effect on expression of TNF-α (LPS-stimulated MG6 cells) | other results
1 | CC[C@H](C)[C@H](NC(=O)[C@H](CO)NC(=O)[C@@H](NC(=O)[C@H](CCCCN)NC(=O)[C@@H](NC(=O)[C@@H](NC(=O)[C@H](Cc1ccc(O)cc1)NC(=O)[C@@H](NC(=O)[C@H](CCSC)NC(=O)[C@@H](N)CC(C)C)C(C)C)C(C)C)C(C)C)[C@@H](C)O)C(=O)N[C@@H](CCCCN)C(=O)N[C@H](C(=O)N1CCC[C@H]1C(=O)N[C@@H](CO)C(=O)N[C@@H](CO)C(=O)N[C@@H](Cc1c[nH]cn1)C(=O)N[C@@H](CC(N)=O)C(=O)N[C@@H](CC(C)C)C(=O)N[C@H](CCSC)C(=O)N[C@@H](CCCCN)C(=O)NCC(=O)NCC(=O)N[C@@H](CO)C(=O)N[C@H](C(=O)N[C@@H](CCCCN)C(=O)N[C@@H](CC(N)=O)C(=O)N[C@@H](Cc1c[nH]c2ccccc12)C(=O)N[C@@H](CO)C(=O)NCC(=O)N[C@@H](CC(N)=O)C(=O)O)[C@@H](C)O)[C@@H](C)CC [MHP1-DC] (H-LMVYVVKTSIKIPSSHNL[dM]KGGSTKNWSGN-OH) | not replicated | more effective than MHP1 |  |  | 
2 | CC[C@H](C)[C@H](NC(=O)[C@H](CO)NC(=O)[C@@H](NC(=O)[C@@H](CCCCN)NC(=O)[C@@H](NC(=O)[C@@H](NC(=O)[C@H](Cc1ccc(O)cc1)NC(=O)[C@@H](NC(=O)[C@H](CCSC)NC(=O)[C@@H](N)CC(C)C)C(C)C)C(C)C)C(C)C)[C@@H](C)O)C(=O)N[C@@H](CCCCN)C(=O)N[C@H](C(=O)N1CCC[C@H]1C(=O)N[C@@H](CO)C(=O)N[C@@H](CO)C(=O)N[C@@H](Cc1c[nH]cn1)C(=O)N[C@@H](CC(N)=O)C(=O)N[C@@H](CC(C)C)C(=O)N[C@@H](CCSC)C(=O)N[C@@H](CCCCN)C(=O)NCC(=O)NCC(=O)N[C@@H](CO)C(=O)N[C@H](C(=O)N[C@@H](CCCCN)C(=O)N[C@@H](CC(N)=O)C(=O)N[C@@H](Cc1c[nH]c2ccccc12)C(=O)N[C@@H](CO)C(=O)NCC(=O)N[C@@H](CC(N)=O)C(=O)O)[C@@H](C)O)[C@@H](C)CC [MHP1-DN1] (H-LMVYVV[dK]TSIKIPSSHNLMKGGSTKNWSGN-OH) |  |  | lacked anti-inflammatory effects | augmented the expression of TNF-α | 
3 | CC[C@H](C)[C@H](NC(=O)[C@H](CO)NC(=O)[C@@H](NC(=O)[C@H](CCCCN)NC(=O)[C@@H](NC(=O)[C@@H](NC(=O)[C@@H](Cc1ccc(O)cc1)NC(=O)[C@@H](NC(=O)[C@H](CCSC)NC(=O)[C@@H](N)CC(C)C)C(C)C)C(C)C)C(C)C)[C@@H](C)O)C(=O)N[C@@H](CCCCN)C(=O)N[C@H](C(=O)N1CCC[C@H]1C(=O)N[C@@H](CO)C(=O)N[C@@H](CO)C(=O)N[C@@H](Cc1c[nH]cn1)C(=O)N[C@@H](CC(N)=O)C(=O)N[C@@H](CC(C)C)C(=O)N[C@@H](CCSC)C(=O)N[C@@H](CCCCN)C(=O)NCC(=O)NCC(=O)N[C@@H](CO)C(=O)N[C@H](C(=O)N[C@@H](CCCCN)C(=O)N[C@@H](CC(N)=O)C(=O)N[C@@H](Cc1c[nH]c2ccccc12)C(=O)N[C@@H](CO)C(=O)NCC(=O)N[C@@H](CC(N)=O)C(=O)O)[C@@H](C)O)[C@@H](C)CC [MHP1-DN2] (H-LMV[dY]VVKTSIKIPSSHNLMKGGSTKNWSGN-OH) |  |  | lacked anti-inflammatory effects | augmented the expression of TNF-α | 
4 | CC[C@H](C)[C@H](NC(=O)[C@H](CO)NC(=O)[C@@H](NC(=O)[C@H](CCCCN)NC(=O)[C@@H](NC(=O)[C@@H](NC(=O)[C@H](Cc1ccc(O)cc1)NC(=O)[C@@H](NC(=O)[C@@H](CCSC)NC(=O)[C@@H](N)CC(C)C)C(C)C)C(C)C)C(C)C)[C@@H](C)O)C(=O)N[C@@H](CCCCN)C(=O)N[C@H](C(=O)N1CCC[C@H]1C(=O)N[C@@H](CO)C(=O)N[C@@H](CO)C(=O)N[C@@H](Cc1c[nH]cn1)C(=O)N[C@@H](CC(N)=O)C(=O)N[C@@H](CC(C)C)C(=O)N[C@@H](CCSC)C(=O)N[C@@H](CCCCN)C(=O)NCC(=O)NCC(=O)N[C@@H](CO)C(=O)N[C@H](C(=O)N[C@@H](CCCCN)C(=O)N[C@@H](CC(N)=O)C(=O)N[C@@H](Cc1c[nH]c2ccccc12)C(=O)N[C@@H](CO)C(=O)NCC(=O)N[C@@H](CC(N)=O)C(=O)O)[C@@H](C)O)[C@@H](C)CC [MHP1-DN3] (H-L[dM]VYVVKTSIKIPSSHNLMKGGSTKNWSGN-OH) |  |  | lacked anti-inflammatory effects | no influence | 
5 | CC[C@H](C)[C@H](NC(=O)[C@H](CO)NC(=O)[C@@H](NC(=O)[C@H](CCCCN)NC(=O)[C@@H](NC(=O)[C@@H](NC(=O)[C@H](Cc1ccc(O)cc1)NC(=O)[C@@H](NC(=O)[C@H](CCSC)NC(=O)[C@@H](N)CC(C)C)C(C)C)C(C)C)C(C)C)[C@@H](C)O)C(=O)N[C@@H](CCCCN)C(=O)N[C@H](C(=O)N1CCC[C@H]1C(=O)N[C@@H](CO)C(=O)N[C@@H](CO)C(=O)N[C@@H](Cc1c[nH]cn1)C(=O)N[C@@H](CC(N)=O)C(=O)N[C@@H](CC(C)C)C(=O)N[C@@H](CCSC)C(=O)N[C@@H](CCCCN)C(=O)NCC(=O)NCC(=O)N[C@@H](CO)C(=O)N[C@H](C(=O)N[C@@H](CCCCN)C(=O)N[C@@H](CC(N)=O)C(=O)N[C@@H](Cc1c[nH]c2ccccc12)C(=O)N[C@@H](CO)C(=O)NCC(=O)N[C@@H](CC(N)=O)C(N)=O)[C@@H](C)O)[C@@H](C)CC [MHP1-N] (H-LMVYVVKTSIKIPSSHNLMKGGSTKNWSGN-NH2) | not replicated | more effective than MHP1 |  |  | 
6 | LMVYVVKTSIKIPSSHNLMKGGSTKNWSGN |  |  |  |  | cleaved bond (Mouse (CD-1(ICR)) serum): L-M2 and M2-V and V-Y4 and Y4-V, major and K7-T, major and Met19-K; fragment found (Mouse (CD-1(ICR)) serum): LMVYVVKTSIKIPSSHNLMKGGSTKNWSGN-Oxygen
